# Source: US20140050778A1, “NUCLEIC ACID BINDING COMPOUNDS, METHODS OF MAKING, AND USE THEREOF” (UNIVERSITY OF ROCHESTER, priority 2010, published 2014)
# Legend:
# [1] = test system: (CAG)10 RNA (SEQ ID NO: 5); experiment: SPR binding to immobilized biotinylated RNA; conditions: for Off-rates (koff) / On-rates (kon): SPR
# Method: (§1) SPR binding measurements were performed on a Biacore-X instrument (Biacore, Inc., Uppsala, Sweden) with two flow channels (FC1 and FC2). 5′-Biotinylated-RNA sequences, with a C6 linker separating the biotin label from the RNA (Integrated DNA Technologies Inc.) were immobilized on streptavidin (Rockland Immunochemicals) functionalized carboxylmethyl dextran coated sensor chips (CM5, G.E. Healthcare) using EDC/NHS (Advanced ChemTech) coupling chemistry. Filtered (0.2μ), degassed and autoclaved HBS-N buffer (0.01M Hepes, pH=7.4, 0.15 M NaCl) was employed as sample and as running buffer for all SPR experiments. A typical protocol for an experiment is as follows: A CM5 sensor chip was allowed to equilibrate to room temperature and then docked into the instrument. Following priming with running buffer, FC1 and FC2 were conditioned by manual injection of 20 μL aqueous NaOH (50 mM) at a flow rate of 30 μL/min. This was repeated 3 times followed by a wash command. Next, the carboxyl groups on the sensor chip surface in both flow cells were activated separately by injecting 60 μL of freshly prepared 1:1 mixture of EDC (0.4 M) and NHS (0.1 M) at a 5 μL/min flow rate followed by a wash. […] After washing, the surface was deactivated with 60 μL injection of ethanolamine (1M, pH=8.5) at 5 μL/min. The flow cells were primed, and the streptavidin surface in FC1 alone was blocked with 30 μL of biotin (20 μM in HBS-N) at 5 μL/min. The RNA (200 nM in running buffer, HBS-N) to be immobilized was unfolded by heating above its predicted melting temperature in a heated block for 2 min and then allowed to refold by cooling gradually to room temperature. The RNA was then immobilized in FC2 alone to response units ranging from 200-1000 RU using a 5 μL/min flow rate. Representative sensorgrams for the immobilization procedure is shown in FIGS. 2A-B. Two 20 μL aliquots of NaCl (0.5 M) were injected at a 30 μL/min flow rate to remove non-specifically bound RNA. The level of RNA immobilized was noted when the baseline was stable, usually after repeated buffer injection followed by a “prime” command. Binding measurements were performed by flowing various concentrations of the compounds to be analyzed over the immobilized RNA and recording the reference-subtracted (FC2−FC1) sensorgrams. For kinetic analysis, at least five sensorgrams corresponding to different concentrations of compound (usually ranging from 0.05-1 μM in HBS-N) were obtained using flow rates of either 60 μL/min or 30 μL/min. The experimental sensorgrams were globally fitted to a 1:1 binding equation (Biaevaluation software) to obtain association rates (ka) and dissociation rates ([…]) as well as equilibrium binding constants (KD). To measure the binding stoichiometry (n), the relations in equations (1-3) below were used: […]
# (§2) where RUmax is the maximum resonance response unit at saturation, RURNA is the amount RU of RNA immobilized, n is the stoichiometry, MWcompound and MWRNA are molecular weights of compound and RNA respectively, and RUeq represents the resonance response at steady-state (equilibrium). The response units at equilibrium were subjected to Scatchard binding plots of (r/Cfree vs. r).
# (§3) The binding characteristics of compounds 3-11 were evaluated against pathogenic CUG^exp RNA and other RNA sequences by SPR. This technique allows the association and dissociation rates (ka and kd), equilibrium binding constants (KD), and the binding stoichiometry (n) to be measured in a label-free format (Liu and Wilson, “Quantitative Analysis of Small Molecule-nucleic Acid Interactions with a Biosensor Surface and Surface Plasmon Resonance Detection,” Methods Mol. Biol. 613:1-23 (2010), which is hereby incorporated by reference in its entirety). […]
# [2] = test system: (CCUG)10 RNA (SEQ ID NO: 4); experiment: SPR binding to immobilized biotinylated RNA; conditions: (CCUG)10; for Off-rates (koff) / On-rates (kon): SPR
# Method: as §1, §2, §3
# [3] = test system: (CUG)2 RNA (SEQ ID NO: 1); experiment: SPR binding to immobilized biotinylated RNA; conditions: for Off-rates (koff) / On-rates (kon): SPR; for ka / kd: Table 7, SPR
# Method: as §1, §2, §3
# [4] = test system: (CUG)4 RNA (SEQ ID NO: 2); experiment: SPR binding to immobilized biotinylated RNA; conditions: for Off-rates (koff) / On-rates (kon): SPR
# Method: as §1, §2, §3
# [5] = test system: CUG-CAG duplex ("Duplex") (SEQ ID NO: 6); experiment: SPR binding to immobilized biotinylated RNA; conditions: for Residence time (t1/2) for compound binding to RNA / Off-rates (koff) / On-rates (kon): Duplex
# Method: as §1, §2, §3
# mouse C2C12 myoblasts = experiment: Cell permeability by fluorescence microscopy; assay type: cell-based; conditions: 12 h, 125 μM, intrinsic fluorescence
# Method: For cell permeability studies, human fibroblasts or mouse myoblasts grown to 80% confluence were exposed to compounds for 12 hours in a 96 well tissue culture plate. After removal of the culture media (DMEM, with 10% FBS, 1% pen-strep (GIBCO)) the cells were washed twice with PBS to remove excess compounds. Cells were then imaged while in buffer under a fluorescence microscope (Olympus IX70) in the 96-well plate using a 460 nm emission filter.
# [6] = test system: C5-14 C2C12 mouse myoblasts ((CUG)800 RNA-MBNL1 complexes); experiment: Firefly luciferase reporter with ~800 CUG repeats in hDMPK 3'UTR; assay type: cell-based; conditions: C5-14 myoblasts, 3 days; compound 4 0-100 μM, compound 11 0-200 μM
# Method: The ability of selected compounds to inhibit the formation of CUG^exp RNA-MBNL1 complexes in mouse myoblasts was then evaluated. […] Cells were grown in 100 μl growth media in 96-well plates to 10% confluency. […] Culture media was replaced with fresh media containing 1% WST-1 reagent (Roche). After 15-20 minutes of incubation, the WST-1 containing media was transferred to a clear 96-well plate, and the absorbances at 450 nm and 690 nm measured with a PerkinElmer EnVision Plate Reader. Cells were gently rinsed (1×PBS) before incubation at -20° C. in 100 μl 1X Passive Lysis Buffer (Promega) for 10 minutes. Immediately before luminescence detection, 20 μl of each lysate was mixed with 50 μl of Luciferase Assay Reagent (Promega) in a fresh opaque-white 96-well plate. Luminescence values were normalized for well-to-well variations in viable cell numbers by dividing by the corresponding (A450 nm-[…] nm) values of the WST-1 containing media. […] Thus, CUG^exp binding compounds are capable of releasing the sequestered mRNA transcripts into the cytoplasm for translation.
compound,measurement,setting,value
CCc1nc2cc3ccccc3cc2cc1C(=O)N1CCC[C@H]1C(=O)N[C@@H](C/C=C/C[C@H](NC(=O)[C@@H]1CCCN1C(=O)c1cc2cc3ccccc3cc2nc1CC)C(=O)N[C@@H](CCCCN)C(=O)NCCCN)C(=O)N[C@@H](CCCCN)C(=O)NCCCN [Compound 5],Residence time (t1/2) for compound binding to RNA,[1],4.2308 min
same,Off-rates (koff),[1],0.00273 s⁻¹
same,On-rates (kon),[1],50200 M⁻¹ s⁻¹
same,Residence time (t1/2) for compound binding to RNA,[2],11.702 min
same,Off-rates (koff),[2],0.000987 s⁻¹
same,On-rates (kon),[2],49700 M⁻¹ s⁻¹
same,Residence time (t1/2) for compound binding to RNA,[3],15.02 min
same,Off-rates (koff),[3],0.000769 s⁻¹
same,On-rates (kon),[3],20100 M⁻¹ s⁻¹
same,ka,[3],ka = 2.01E+4/M * s
same,kd,[3],kd = 7.69E−4/s
same,Residence time (t1/2) for compound binding to RNA,[4],8.3093 min
same,Off-rates (koff),[4],0.00139 s⁻¹
same,On-rates (kon),[4],30100 M⁻¹ s⁻¹
same,Residence time (t1/2) for compound binding to RNA,[5],3.0078 min
same,Off-rates (koff),[5]; SPR,0.00384 s⁻¹
same,On-rates (kon),[5]; SPR,15000 M⁻¹ s⁻¹
same,cell membrane penetration / localization,mouse C2C12 myoblasts,readily penetrate cell membranes and localize in the nucleus
CCc1nc2cc3ccccc3cc2cc1C(=O)N1CCC[C@H]1C(=O)N[C@@H](C/C=C\C[C@H](NC(=O)[C@@H]1CCCN1C(=O)c1cc2cc3ccccc3cc2nc1CC)C(=O)N[C@@H](CCCCN)C(=O)NCCCN)C(=O)N[C@@H](CCCCN)C(=O)NCCCN [Compound 4],Residence time (t1/2) for compound binding to RNA,[1],3.9965 min
same,Off-rates (koff),[1],0.00289 s⁻¹
same,On-rates (kon),[1],35600 M⁻¹ s⁻¹
same,Residence time (t1/2) for compound binding to RNA,[2],6.2772 min
same,Off-rates (koff),[2],0.00184 s⁻¹
same,On-rates (kon),[2],60100 M⁻¹ s⁻¹
same,Residence time (t1/2) for compound binding to RNA,[3],13.08 min
same,Off-rates (koff),[3],0.000883 s⁻¹
same,On-rates (kon),[3],24500 M⁻¹ s⁻¹
same,ka,[3],ka = 2.45E+4/M * s
same,kd,[3],kd = 8.83E−4/s
same,Residence time (t1/2) for compound binding to RNA,[4],7.0858 min
same,Off-rates (koff),[4],0.00163 s⁻¹
same,On-rates (kon),[4],42400 M⁻¹ s⁻¹
same,Residence time (t1/2) for compound binding to RNA,[5],7.549 min
same,"binding to duplex CUG-CAG stronger than the E isomer, compound 5",[5]; SPR,approximately 5.7 fold
same,Off-rates (koff),[5]; SPR,0.00153 s⁻¹
same,On-rates (kon),[5]; SPR,29500 M⁻¹ s⁻¹
same,luciferase activity,[6],concentration-dependent increases in luciferase activity
